Assays:
[1] = test system: alloxan-induced diabetic mouse model; assay: Sub-acute evaluation of in vivo oral hypoglycemic activity (21 days dosing, 7 days rest); conditions: diabetic mice, mean ± SEM, n=6; for % change in BG, 7 days rest period: day 28: 7 days rest after 21 days oral 200 μg/kg body weight; for % change in BG, 7 day / % change in BG, 14 day / % change in BG, 21 day: oral 200 μg/kg body weight daily; for % change in BG, 7 day: day 7; for % change in BG, 14 day: day 14; for % change in BG, 21 day: day 21
Experimental: The sulfonylurea derivative compounds were also screened for their oral hypoglycemic activity after several days of administration using the alloxan-induced diabetic mouse model, and percentage changes in blood glucose levels after oral administration ([…] body weight) were recorded (Table 2).
Briefly, animals were fasted overnight, and the fasting BG (0 day) levels were calculated. Test and control compounds were administered orally for 21 days at a fixed time and a fixed dose of 200 μg/kg body weight (homogenized suspension in 0.5% CMC and permissible amounts of Tween 80). After 21 days, treatment was stopped and animals were rested for a period of 7 days. Animals in the vehicle-treated group were then given an equal amount of 0.5% CMC and those of control group were untreated. Blood samples were removed from all animals throughout the course of the study at 7, 14, 21 and 28 days, and percentage change in BG was calculated. The data were analyzed by one-way ANOVA, followed by Dunnett's test. The results were expressed as mean±standard error of mean for each group, n=6 for each group, and p<0.01 or p<0.05 was considered as statistically significant (Table 2).

[2] = test system: alloxan-induced diabetic mouse model; assay: Acute evaluation of in vivo oral hypoglycemic activity; conditions: diabetic mice, single oral dose 200 μg/kg body weight, mean ± SEM, n=6
Experimental: The sulfonylurea derivatives of oleanolic acid were screened for their oral hypoglycemic activity in vivo using the alloxan-induced diabetic mouse model. In an acute evaluation, the percentage change in blood glucose levels in diabetic mice after oral administration of the test compounds (200 μg/kg body weight) was measured and summarized in Table 1 and FIG. 2.
Briefly, animals were fasted overnight and the fasting blood glucose (BG) (0 hour) levels were calculated. Test and control compounds were administered at a fixed dose of 200 μg/kg body weight orally (homogenized suspension in 0.5% carboxymethyl cellulose (CMC) and permissible amounts of Tween 80). Animals in the vehicle-treated group were given an equal volume of 0.5% CMC and control group animals were untreated. Blood samples were removed from all animals at 2, 4, 6 and 24 hours and the percentage change in BG was calculated. The data were analyzed by one-way ANOVA followed by Dunnett's test. The results were expressed as mean±standard error of mean for each group, n=6 for each group, and p<0.01 or p<0.05 was considered as statistically significant.

SMILES	% change in BG, 7 days rest period [1]	% change in BG, 7 day [1]	% change in BG, 14 day [1]	% change in BG, 21 day [1]	% change in BG, 2 h [2]	% change in BG, 4 h [2]	% change in BG, 6 h [2]	% change in BG, 24 h [2]
CC1CCC(NC(=O)NS(=O)(=O)c2ccc(CCNC(=O)C34CCC(C)(C)CC3C3=CCC5C6(C)CCC(=O)C(C)(C)C6CCC5(C)C3(C)CC4)cc2)CC1 (stereo not drawn) [Compound 3b, N1-[4-(3-Oxo-18β-olean-12-ene-28-amido-ethyl)-benzenesulfonyl]-N2-(4-methylcyclohexyl)-urea]	−82.12 ± 1.17%	−80.80 ± 0.80%	−84.98 ± 1.16%	−88.89 ± 1.12%	−75.56 ± 0.86%	−80.97 ± 0.92%	−88.89 ± 0.98%	−76.76 ± 0.89%
CC1(C)CC[C@]2(C(=O)NCCc3ccc(S(=O)(=O)NC(=O)NC4CCCCC4)cc3)CC[C@]3(C)C(=CC[C@@H]4[C@@]5(C)CCC(=O)C(C)(C)[C@@H]5CC[C@]43C)[C@@H]2C1 [Compound 3a, N1-[p-(4-Oxo-18β-olean-12-ene-28-amido-ethyl)-benzenesulfonyl]-N2-cyclohexyl-urea]	−81.78 ± 0.90%	−76.87 ± 0.89%	−80.09 ± 0.90%	−87.65 ± 0.95%	−72.76 ± 0.78%	−77.76 ± 0.90%	−83.56 ± 0.83%	−74.44 ± 0.74%
COc1ccc(Cl)cc1C(=O)NCCc1ccc(S(=O)(=O)NC(=O)NC2CCCCC2)cc1 [Glibenclamide, glibenclamide]	−28.48 ± 0.58%	−16.23 ± 0.32%	−22.57 ± 0.54%	−30.87 ± 0.58%	−35.55 ± 1.55%	−26.54 ± 1.32%	−15.58 ± 0.88%	−11.24 ± 0.11%
CC1(C)CC[C@]2(C(=O)O)CC[C@]3(C)C(=CC[C@@H]4[C@@]5(C)CC[C@H](O)C(C)(C)[C@@H]5CC[C@]43C)[C@@H]2C1 [Oleanolic acid, oleanolic acid]	−30.32 ± 0.83%	−10.56 ± 0.80%	−20.35 ± 0.72%	−37.68 ± 0.78%	−40.79 ± 1.20%	−48.66 ± 1.31%	−52.17 ± 1.31%	−51.01 ± 1.11%
